Several values for one entry are separate records, joined by “and”; a condition that tells them apart may be missing. Identical values can stand only once. Oligonucleotides are written 5' to 3', each unit as a sugar letter and its base; * is a phosphorothioate linkage, no mark a phosphodiester; rarer units and linkages stand in square brackets, end groups in braces. Plain capitals give the bases only. d = 2'-deoxy (DNA)
Tests used:
[1] = target: T1, CD44-HABD (Homo sapiens, UniProt P16070); assay: Filter binding assay of biotinylated XAs with CD44-HABD
T1 construct: DNA encoding CD44-HABD (amino acid residues 20-178) was synthesized and cloned into expression vector pET19b; made in house
Method: Filter binding assay. The equilibrium binding constants of selected XAs for CD44-HABD were determined by a filter binding assay. The biotinylated XAs (1 nM) were incubated with varying concentrations of CD44-HABD in 50 μL of 20 mM Tris, pH 8.0, 150 mM NaCl for 40 min at room temperature and then transferred to a 96-well dot-blot apparatus and filtered under vacuum onto nitrocellulose membranes, which retain the CD44-HABD along with any bound XAs. The amount of biotinylated XA retained at each spot was determined by chemiluminescent detection using the Chemiluminescent Nucleic Acid Detection Module (Thermo Scientific) following the manufacturer's instructions. The chemiluminescent signals were collected on a Chemimager (Alpha Innotech). Image analysis and quantification of spot intensities were performed using ImageJ (version 1.42q). Binding analysis was based on the spot intensities on the nitrocellulose membranes with subtraction of background spot intensity due to the buffer effect from all the data points. Saturation binding curves were generated by using GraphPad Prism with curve fits assuming a single binding site. The NH2 XA column lists KDs for XAs where X=amino-dU. The ADDA XA column lists KDs for XAs where X=ADDA-dU.
The equilibrium binding constants of the small constructs were determined by the filter binding assay. The derived equilibrium binding constants of the above small XA constructs are shown below in Table 4.

[2] = target: T1, CD44-HABD; assay: 1H-NMR titration of CD44-HABD with ADDA (equilibrium dissociation constant); type: binding
Method: ADDA binding to CD44-HABD. CD44-HABD was prepared in the NMR buffer (20 mM Tris, 50 mM NaCl, 5% (v/v) D2O, pH 6.7). ADDA was dissolved in DMSO (1.4 M) as stock solution. The ADDA sample for NMR was prepared in the same buffer (20 mM Tris, 50 mM NaCl, 1.25 mM ADDA, 0.1% (v/v) DMSO, 5% (v/v) D2O, pH 6.7). CD44-HABD (27 μM) with various concentration of ADDA (14 μM, 25 μM, 50 μM, 250 μM and 1250 μM) was also prepared in the same buffer. The ^1H-NMR spectra of CD44-HABD only, ADDA only and CD44-HABD in presence of ADDA were obtained.
The equilibrium dissociation constant of ADDA to CD44-HABD was determined by ^1H-NMR.

[3] = system: human pancreatic cancer xenograph; assay: Near infrared imaging of IR800dye-labeled thioaptamer in mouse xenograft; type: in vivo; conditions: mouse with human pancreatic cancer xenograph
From the text: Use of Thioaptamers in vivo.

[4] = permonothioated full-length XA, X = ADDA-dU, read-out: KD (nM) ADDA XA
[5] = permonothioated full-length XA, X = amino-dU, read-out: KD (nM) NH2 XA

T1 sequence (P16070 20-178): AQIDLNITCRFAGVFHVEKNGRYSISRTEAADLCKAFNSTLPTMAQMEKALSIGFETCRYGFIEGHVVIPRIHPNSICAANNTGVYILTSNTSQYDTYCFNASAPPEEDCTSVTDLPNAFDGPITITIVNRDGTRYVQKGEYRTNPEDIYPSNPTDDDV

Molecule: 1 (DNA AAGGGAACCAAGGACACTAC; DNA, backbone not given here; tested as phosphodiester and as thiophosphate form) [Motif 1]
- Kd ([1]; truncated motif without X, phosphate backbone, read-out: Dissociation constant (nM), phosphoaptamer form): 10.3 ± 1.3 nM
- Kd ([1]; truncated motif without X, thiophosphate backbone, read-out: Dissociation constant (nM), thioaptamer form): 15 ± 2 nM

Molecule: CC(=O)N[C@H]1[C@H]([C@H](O)[C@H](O)CO)OC(C(=O)O)=C[C@@H]1O [ADDA, N-acetyl-2,3-dehydro-2-deoxyneuraminic acid]
- Kd ([2]; 1H-NMR peak 7.7925 ppm, read-out: KD): 3080 µM
- Kd ([2]; 1H-NMR peak 7.9025 ppm, read-out: KD): 1440 µM
- Kd ([2]; 1H-NMR peak 7.9225 ppm, read-out: KD): 1720 µM
- Kd ([2]; 1H-NMR peak 7.9375 ppm, read-out: KD): 1920 µM
- Kd ([2]; 1H-NMR peak 7.9575 ppm, read-out: KD): 1710 µM
- Kd ([2]; 1H-NMR peak 7.9925 ppm, read-out: KD): 3430 µM
- Kd ([2]; average over the six selected 1H-NMR peaks, read-out: Average KD): 2220 µM and ~2000 µM

Molecule: XA2: permonothioated X-aptamer to CD44-HABD, SEQ ID NO 13; X = amino-dU or ADDA-dU (DNA NGCAGATCTGCAAGGGAACCAAGGACACTA; phosphorothioate; amino-dU or ADDA-dU modified; (1)..(1) n = X = 5-(aminoethyl-3-acrylimido)- deoxyuridine)
- Kd [1, 4]: 78.3 ± 18.1 nM
- Kd [1, 5]: 55.5 ± 13.4 nM

Molecule: XA3: permonothioated X-aptamer to CD44-HABD, SEQ ID NO 14; X = amino-dU or ADDA-dU (DNA CCAAGGCCTGCAAGGGAACCAAGTCCANTA; phosphorothioate; amino-dU or ADDA-dU modified; (28)..(28) n = X = 5-(aminoethyl-3-acrylimido)- deoxyuridine)
- Kd [1, 4]: 140 ± 16.8 nM
- Kd [1, 5]: 111 ± 18.5 nM

Molecule: XA6: permonothioated X-aptamer to CD44-HABD, SEQ ID NO 17; X = amino-dU or ADDA-dU (DNA TTGGGGCCTGCAAGACGACCNAAACGANGA; phosphorothioate; amino-dU or ADDA-dU modified; (21)..(21) n = X = 5-(aminoethyl-3-acrylimido)- deoxyuridine; (28)..(28) n = X = 5-(aminoethyl-3-acrylimido)- deoxyuridine)
- Kd [1, 4]: 150 ± 25.7 nM
- Kd [1, 5]: 214 ± 31.6 nM

Molecule: XA7: permonothioated X-aptamer to CD44-HABD, SEQ ID NO 18; X = amino-dU or ADDA-dU (DNA NNAAGACGCANTAANGAACCAAGGACGTGA; phosphorothioate; amino-dU or ADDA-dU modified; (1)..(2) n = X = 5-(aminoethyl-3-acrylimido)- deoxyuridine; (11)..(11) n = X = 5-(aminoethyl-3-acrylimido)- deoxyuridine; (15)..(15) n = X = 5-(aminoethyl-3-acrylimido)- deoxyuridine)
- Kd [1, 4]: 116 ± 20.7 nM
- Kd [1, 5]: 306 ± 69.3 nM

Molecule: XA8: permonothioated X-aptamer to CD44-HABD, SEQ ID NO 19; X = amino-dU or ADDA-dU (DNA CCAAGATCNGNAAGGTANCCGGGGACNG; phosphorothioate; amino-dU or ADDA-dU modified; (9)..(9) n = X = 5-(aminoethyl-3-acrylimido)- deoxyuridine; (11)..(11) n = X = 5-(aminoethyl-3-acrylimido)- deoxyuridine; (18)..(18) n = X = 5-(aminoethyl-3-acrylimido)- deoxyuridine; (27)..(27) n = X = 5-(aminoethyl-3-acrylimido)- deoxyuridine)
- Kd [1, 4]: 274 ± 54.3 nM
- Kd [1, 5]: 463 ± 82.4 nM

Molecule: XA10: permonothioated X-aptamer to CD44-HABD, SEQ ID NO 21; X = amino-dU or ADDA-dU (DNA dT*dT*dG*dG*dG*dG*dC*dC*dC*dA*dG*dT*dA*dG*dG*dT*dA*dA*dC*dC*dG*dG*dG*dG*dA*dC*dA*dG; further chemistry not given here)
- Kd [1, 5]: 450 ± 180 nM

Molecule: XA11: permonothioated X-aptamer to CD44-HABD, SEQ ID NO 22; X = amino-dU or ADDA-dU (DNA TTGGGACGTAAGTAANGGGGGACANGA; phosphorothioate; amino-dU or ADDA-dU modified; (16)..(16) n = X = 5-(aminoethyl-3-acrylimido)- deoxyuridine; (25)..(25) n = X = 5-(aminoethyl-3-acrylimido)- deoxyuridine)
- Kd [1, 4]: 1090 ± 390 nM
- Kd [1, 5]: 846 ± 151 nM

Molecule: XA12: permonothioated X-aptamer to CD44-HABD, SEQ ID NO 23; X = amino-dU or ADDA-dU (DNA NNAAGGCCNGNTAAANGATATCCACTA; phosphorothioate; amino-dU or ADDA-dU modified; (1)..(2) n = X = 5-(aminoethyl-3-acrylimido)- deoxyuridine; (9)..(9) n = X = 5-(aminoethyl-3-acrylimido)- deoxyuridine; (11)..(11) n = X = 5-(aminoethyl-3-acrylimido)- deoxyuridine; (16)..(16) n = X = 5-(aminoethyl-3-acrylimido)- deoxyuridine)
- Kd [1, 4]: 879 ± 135 nM
- Kd [1, 5]: 963 ± 183 nM

Molecule: XA13: permonothioated X-aptamer to CD44-HABD, SEQ ID NO 24; X = amino-dU or ADDA-dU (DNA NGCAGATCTGCAAGGGAAAGATAGACACAG; phosphorothioate; amino-dU or ADDA-dU modified; (1)..(1) n = X = 5-(aminoethyl-3-acrylimido)- deoxyuridine)
- Kd [1, 4]: 312 ± 68.5 nM
- Kd [1, 5]: 1380 ± 237 nM

B1: ESTA-1: ESTA-1 thioaptamer sequence (SEQ. ID. 32), IRdye 800-labelled, gold nanoparticle (FIG. 16) (nucleic acid)
DNA: CGCTCGGATCGATAAGCTTCGATCCCACTCTCCCGTTCACTTCTCCTCACGTCACGGATCCTCTAGAGCACTG
modifications: Thioaptamer, thioate positions not given here, IRdye 800 label, gold nanoparticle conjugate
- accumulation in tumor (near infrared image) [3]: accumulates in the tumor
